The assay addresses ClpP1P2 (Mycobacterium tuberculosis (strain ATCC 25618 / H37Rv), UniProt P9WPC3+P9WPC5). The assay is described as follows: in vitro assay to detect presence of AMC directly proportional to the activity of ClpP1P2. GHDDI collaboration. The assay is classed as functional.

This is an account of results in ChEMBL document CHEMBL3988442, “University of Dundee, Small-Polar-MMV Screening Library” (2021).

One may read the IC50 as the concentration at which inhibition is half-maximal.

ClpP1P2, sequence (P9WPC5 whole entry): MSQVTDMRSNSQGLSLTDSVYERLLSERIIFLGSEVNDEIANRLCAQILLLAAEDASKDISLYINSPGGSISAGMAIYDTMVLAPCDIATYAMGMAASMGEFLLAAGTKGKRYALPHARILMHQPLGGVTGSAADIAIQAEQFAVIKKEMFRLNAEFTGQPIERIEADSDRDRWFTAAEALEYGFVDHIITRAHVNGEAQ
ClpP1P2, sequence (P9WPC3 whole entry): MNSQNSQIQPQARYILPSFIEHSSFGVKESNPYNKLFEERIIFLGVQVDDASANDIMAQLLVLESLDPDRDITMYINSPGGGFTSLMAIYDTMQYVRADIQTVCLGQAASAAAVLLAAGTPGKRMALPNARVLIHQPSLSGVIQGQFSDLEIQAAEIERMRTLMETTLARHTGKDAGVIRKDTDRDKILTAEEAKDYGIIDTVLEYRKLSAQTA

On to `COCCOc1ccc(CNc2cnc3ccccc3n2)cn1`, for which the IC50 is more than 100 µM.

As to `Cn1c(N)c2c(=O)n(C)c(-c3ccc(Cl)cc3Cl)cc2c(C#N)c1=O`, the IC50 is more than 100 µM.

As to `CCN(CC)c1ccc(NS(=O)(=O)c2cnn(CC)c2)cn1`, the IC50 is more than 100 µM.

On to `CCN(CC)c1ccc(NS(=O)(=O)c2cnn(C(C)C)c2)cn1`, for which the IC50 is more than 100 µM.

With `CC(C)N(CCC#N)C(=O)c1cnc(-c2ccc3c(c2)OCO3)s1`, the IC50 was more than 100 µM.

With `c1ccc2nc(N3CCCC3c3nnc4n3CCCCC4)cnc2c1` (stereo not drawn), the IC50 was more than 100 µM.

`c1cnc2nc(N3CCCC3c3nnc4n3CCCCC4)ccc2n1` (stereo not drawn): the IC50 is more than 100 µM.

With `Cc1nc2ccccc2nc1NCc1cccc(OCC2CCCO2)c1` (stereo not drawn), the half-inhibitory concentration (IC50) is more than 100 µM.

For `CCN(C(=O)CNc1cc(C)c(F)cc1C(N)=O)C1CC1`, the 50% inhibitory concentration (IC50) is more than 100 µM.

`Cc1cc(NCC(=O)N(C)C)c(C(N)=O)cc1F`: the 50% inhibitory concentration (IC50) is more than 100 µM.

For the molecule `Cc1cc(NCC(=O)N(C)Cc2cccs2)c(C(N)=O)cc1F`, the half-maximal inhibitory concentration (IC50) was more than 100 µM.

`COc1ccc2c(c1)C(=O)N(C)C1(CCN(CC=C(C)C)CC1)N2`: the IC50 was more than 100 µM.

With `COc1ccc2c(c1)C(=O)N(C)C1(CCN(CC3CC3)CC1)N2`, the half-inhibitory concentration (IC50) was more than 100 µM.

On to `COc1ccc2c(c1)C(=O)N(C)C1(CCN(C(=O)OC(C)(C)C)CC1)N2`, for which the 50% inhibitory concentration (IC50) is more than 100 µM.

On to `COCc1ccccc1CNC(=O)CNc1ccccc1C(C)=O`, for which the IC50 is more than 100 µM.

On to `O=C(NCCCn1cncn1)c1ccc(-c2ccco2)[nH]c1=O`, for which the IC50 is more than 100 µM.

Turning to `O=C(NCc1nc2cc(F)ccc2[nH]1)c1ccc[nH]1`, the IC50 was more than 100 µM.

Take `Cc1nccn1CCCNc1nccnc1C#N`: the IC50 was more than 100 µM.

As for `Cc1nc(N2CCCC2)ccc1NCc1ccccn1`, the IC50 is more than 100 µM.

`CS(=O)(=O)CC1(CNc2cc(C#N)c3cc(Cl)ccc3n2)CC1`: the IC50 is more than 100 µM.

With `CCCn1nc2c(cc1=O)CN(CC(=O)N(C)c1nccs1)CC2`, the half-inhibitory concentration (IC50) is more than 100 µM.

Take `N#Cc1ccc(F)c(CN2CCNC(=O)C2c2cccs2)c1` (stereo not drawn): the IC50 was more than 100 µM.

Regarding `N#Cc1cccc(OCCN2CCNC(=O)C2c2cccs2)c1` (stereo not drawn), the 50% inhibitory concentration (IC50) was more than 100 µM.

As for `CN(C(=O)CCc1nc(C2CC2)no1)c1cc(C#N)c2ccccc2n1`, the half-inhibitory concentration (IC50) was more than 100 µM.

As to `CNC(=O)c1cc(C)ccc1NCc1cn2cc(C)ccc2n1`, the IC50 is more than 100 µM.

On to `Cc1cccc2c1NC1(CCCC1)NC2=O`, for which the IC50 is more than 100 µM.

On to `Cc1cccc2c1NC1(CCOCC1)NC2=O`, for which the IC50 is more than 100 µM.

Consider `Cc1cccc2c1C(=O)NC1(CCOCC1)N2`, for which the half-maximal inhibitory concentration (IC50) was more than 100 µM.

Consider `CN(C)C(=O)N1CCN(C(=O)c2ccn3cncc3c2)CC1`, for which the 50% inhibitory concentration (IC50) was more than 100 µM.

With `O=C1C(Nc2ccc3nccnc3n2)CCN1c1ccccc1F` (stereo not drawn), the concentration for half-maximal inhibition (IC50) is more than 100 µM.

Turning to `O=C1C(Nc2ccc3nccnc3n2)CCN1c1ccccc1` (stereo not drawn), the IC50 is more than 100 µM.

Regarding `O=C1CC(Nc2ccc3nccnc3n2)CN1c1ccccc1` (stereo not drawn), the 50% inhibitory concentration (IC50) is more than 100 µM.

Turning to `O=C(NCC1CCCOC1)c1ccc(-c2cccs2)[nH]c1=O` (stereo not drawn), the concentration for half-maximal inhibition (IC50) is more than 100 µM.

In the case of `CCCC(C)NC(=O)c1ccc(-c2ccco2)[nH]c1=O` (stereo not drawn), the IC50 is more than 100 µM.

In the case of `CCC(C)NC(=O)c1ccc(-c2ccco2)[nH]c1=O` (stereo not drawn), the concentration for half-maximal inhibition (IC50) was more than 100 µM.

With `CCCNC(=O)c1ccc(-c2ccco2)[nH]c1=O`, the IC50 is more than 100 µM.

As to `CC(COCC(F)(F)F)NC(=O)c1ccc(-c2ccco2)[nH]c1=O` (stereo not drawn), the IC50 is more than 100 µM.

With `CCC(C)(C)NC(=O)c1ccc(-c2ccco2)[nH]c1=O`, the IC50 is more than 100 µM.

Consider `CCN(CC)C(=O)CCNc1cncc(-n2nc(C)cc2C)n1`, for which the IC50 was more than 100 µM.

On to `Cc1cc(C)n(-c2cncc(NCCNC(=O)C(C)C)n2)n1`, for which the IC50 is more than 100 µM.

As for `Cc1cc(C)n(-c2cncc(NCCNC(=O)CC3CCCC3)n2)n1`, the IC50 is more than 100 µM.

For the molecule `Cc1cn2c(=O)c(-c3ccnc(N[C@@H](C)CO)n3)cnc2s1`, the 50% inhibitory concentration (IC50) was more than 100 µM.

`Cc1csc2ncc(-c3ccnc(N4CCCN(C)CC4)n3)c(=O)n12`: the IC50 is more than 100 µM.

With `Cc1sc2ncc(-c3ccnc(NC4CCN(C)CC4)n3)c(=O)n2c1C`, the half-maximal inhibitory concentration (IC50) is more than 100 µM.

For `Cc1csc2ncc(-c3ccnc(N4CCCC[C@@H]4CO)n3)c(=O)n12`, the IC50 is more than 100 µM.

Turning to `Cc1csc2ncc(-c3ccnc(N4CCN(C)CC4)n3)c(=O)n12`, the 50% inhibitory concentration (IC50) is more than 100 µM.

Take `CN(C)c1ccnc(-c2ccnc3c2ccn3C)n1`: the IC50 is more than 100 µM.

On to `COCC(C)N1CCc2onc(-c3ccc(F)c(F)c3)c2C1` (stereo not drawn), for which the IC50 is more than 100 µM.

With `CCC[C@H]1CN(c2cncc(C(=O)N3CCCCC3)n2)C[C@@H]1N(C)C`, the concentration for half-maximal inhibition (IC50) was more than 100 µM.

`CC(C)Nc1ccnc(-c2ccnc3c2ccn3C)n1`: the IC50 was more than 100 µM.

Take `CCC[C@H]1CN(c2cncc(C(=O)N(C)C)n2)C[C@@H]1N(C)C`: the 50% inhibitory concentration (IC50) is more than 100 µM.

In the case of `Fc1ccccc1-c1cc(N2[C@@H]3CC[C@H]2CNC3)n2nccc2n1`, the IC50 is more than 100 µM.

As to `CCOc1ccccc1CC(=O)N1C[C@@H](C(=O)O)[C@H](c2ccncc2)C1`, the IC50 is more than 100 µM.

For the molecule `CCC[C@@H]1CN(c2cncc(C(=O)N3CCOCC3)n2)C[C@H]1N(C)C`, the half-maximal inhibitory concentration (IC50) is more than 100 µM.

`CC(C)[C@H](Nc1cc(-c2ccncc2)nc2ccnn12)C(N)=O`: the IC50 is more than 100 µM.

With `Nc1nccc(-c2cccc3ccnn23)n1`, the IC50 is more than 100 µM.

As for `CC(=O)Nc1ccc2nc(CN(C)Cc3noc(C)n3)ccc2c1`, the concentration for half-maximal inhibition (IC50) was more than 100 µM.

Turning to `Cc1nc(N2CCCC2C(=O)NC(C)(C)CO)nc2ccccc12` (stereo not drawn), the concentration for half-maximal inhibition (IC50) is more than 100 µM.

As for `Cn1ccc2c(-c3cc(N)nc(N4CCOCC4)n3)ccnc21`, the IC50 is more than 100 µM.

Turning to `Cc1ccc2cc(CN(C)Cc3ccncn3)c(=O)[nH]c2c1`, the IC50 is more than 100 µM.

On to `O=C(c1cncc(NCC2COc3ccccc3C2)n1)N1CCOCC1` (stereo not drawn), for which the half-maximal inhibitory concentration (IC50) is more than 100 µM.

`CCCn1cc(-c2cc(-c3cc(CC)n[nH]3)c(C#N)c(N)n2)c(C)n1`: the 50% inhibitory concentration (IC50) was more than 100 µM.

As to `COc1ccc2cc(CN(C)CCN3CCCCC3=O)c(=O)[nH]c2c1`, the IC50 was more than 100 µM.

As for `Cc1nc(N2CCCC2C(=O)NCc2ccsc2)nc2ccccc12` (stereo not drawn), the IC50 is more than 100 µM.

`O=C(c1cc(-c2ccco2)nc2c(Cl)cccc12)N1CC[C@H]2CNC[C@H]21`: the IC50 is more than 100 µM.

Consider `Cn1c(Cn2ccnc2)nnc1C1CCN(C(=O)c2cccnc2)CC1`, for which the IC50 was more than 100 µM.

On to `Cc1ncsc1CCC(=O)NC1CCN(c2ncccc2C#N)CC1`, for which the half-maximal inhibitory concentration (IC50) is more than 100 µM.

For the molecule `O=C(c1cc(-c2ccco2)nc2c(Cl)cccc12)N1CCS(=O)(=O)CC1`, the IC50 was more than 100 µM.

`COc1ccc2nc(O)c(CN(C)Cc3ncc[nH]3)cc2c1`: the IC50 is more than 100 µM.

`Cc1n[nH]c(C)c1-c1cc(-c2cc[nH]c2)nc(N)c1C#N`: the IC50 was more than 100 µM.

With `N#Cc1c(C2CCOC2)cc(-c2ccc(N3CCCCC3)cc2)nc1N` (stereo not drawn), the IC50 is more than 100 µM.

Consider `O=S1(=O)CCC(CNc2cc(-c3ccccc3)nc3ccnn23)C1` (stereo not drawn), for which the IC50 is more than 100 µM.

Turning to `CCOc1ccc2[nH]c(=O)c(CN3CCCC(CO)(CO)C3)cc2c1`, the IC50 was more than 100 µM.

Take `CS(=O)(=O)N1CC[C@]2(O)CCN(c3cc(C#N)ccn3)C[C@@H]2C1`: the concentration for half-maximal inhibition (IC50) is more than 100 µM.

Regarding `O=C1C[C@H]2CC[C@@H](CN1)N2c1cc(-c2ccccc2F)nc2ccnn12`, the IC50 was more than 100 µM.

Regarding `COc1cccc2ccc(N3CCC(O)(c4ccc(C)cn4)CC3)nc12`, the IC50 is more than 100 µM.

As to `CC(C)C1CN(c2cccc(C#N)n2)CCCN1CC1CC1` (stereo not drawn), the half-maximal inhibitory concentration (IC50) was more than 100 µM.

For `CN(C)S(=O)(=O)N1CC[C@]2(O)CCN(c3cc(C#N)ccn3)C[C@@H]2C1`, the 50% inhibitory concentration (IC50) was more than 100 µM.

Take `Cc1cccc(-c2cc(-c3c(C)nn(CCO)c3C)c(C#N)c(N)n2)c1`: the IC50 was more than 100 µM.

As for `COC(=O)[C@@H]1C[C@H](NC(=O)c2cc(=O)[nH]c3ccc(C)cc23)CN1C`, the IC50 is more than 100 µM.

As for `CCOc1ccc2[nH]c(=O)c(CN3CCC(n4cnnc4)CC3)cc2c1`, the half-inhibitory concentration (IC50) is more than 100 µM.

`Cc1nn2c(N3CCCC(C(N)=O)C3)cc(-c3ccccc3)nc2c1C` (stereo not drawn): the IC50 was more than 100 µM.

Consider `COCC(C)N1CCc2onc(-c3ccc(C(F)(F)F)cc3)c2C1` (stereo not drawn), for which the concentration for half-maximal inhibition (IC50) was more than 100 µM.

With `CN(C)C(=O)CN1C[C@@H]2CC[C@H](C1)N(Cc1ccc(Cl)cc1Cl)C2`, the 50% inhibitory concentration (IC50) was more than 100 µM.

`CCNC(=O)[C@@H]1C[C@H](NC(=O)c2cc(=O)[nH]c3ccc(C)cc23)CN1C`: the half-inhibitory concentration (IC50) was more than 100 µM.

`Cc1ccc(C#N)c(N2CCC3(CCCN(C4CCOCC4)C3=O)C2)n1` (stereo not drawn): the IC50 was more than 100 µM.

As for `CC(=O)N1CCc2[nH]cnc2C1C1=CCCN(CCn2cccc2)C1` (stereo not drawn), the 50% inhibitory concentration (IC50) is more than 100 µM.

For `CCSc1ncc(-c2cc(C3CC3)nc(N)c2C#N)cn1`, the IC50 was more than 100 µM.

Regarding `Cc1n[nH]c(C)c1-c1cc(-c2cccc(O)c2)nc(N)c1C#N`, the IC50 is more than 100 µM.

As for `COc1cc(OC)c2nc(NCCN3CCNC3=O)cc(C)c2c1`, the IC50 was more than 100 µM.

As to `COc1ccc2cc(CN(C)CCc3cn[nH]c3)c(=O)[nH]c2c1`, the concentration for half-maximal inhibition (IC50) was more than 100 µM.

Take `Cc1ccc(C2(O)CCN(C(=O)CCn3ccc(=O)[nH]c3=O)CC2)nc1`: the concentration for half-maximal inhibition (IC50) is more than 100 µM.

Take `CN(CCN1CCCCC1=O)Cc1cc2cc3c(cc2[nH]c1=O)OCO3`: the concentration for half-maximal inhibition (IC50) is more than 100 µM.

`CCOc1ccc2[nH]c(=O)c(CN3CCN(S(N)(=O)=O)CC3)cc2c1`: the IC50 was more than 100 µM.

Regarding `COc1cc2c(cc1-c1nc3c(cnn3C(C)C)[nH]1)OCO2`, the half-maximal inhibitory concentration (IC50) was more than 100 µM.

As to `CNc1cc(C(=O)NCCC2=CSC3=NCCCN23)ccn1`, the concentration for half-maximal inhibition (IC50) was more than 100 µM.

For the molecule `CNC(=O)C1CCCN1c1nc(C)c2ccccc2n1` (stereo not drawn), the half-maximal inhibitory concentration (IC50) was more than 100 µM.

Regarding `N[C@H]1CN(C(=O)c2ccccc2OCCc2ccccc2)C[C@@H]1C1CC1`, the IC50 was more than 100 µM.

As for `CN(C)c1cncc(-c2ccnc3c2ccn3C)n1`, the IC50 is more than 100 µM.

With `Cn1ncc(N2CCOC(CCNC(=O)CO)C2)cc1=O` (stereo not drawn), the IC50 was more than 100 µM.

Regarding `CCOC(=O)C1(Cc2ccc(Cl)cc2)CCN(Cc2ncc[nH]2)CC1`, the IC50 is more than 100 µM.

`CC(c1ccncn1)N(C)Cc1cc2cc3c(cc2[nH]c1=O)OCO3` (stereo not drawn): the IC50 is more than 100 µM.

`CC(c1ccccn1)N(C)Cc1cc2cc3c(cc2[nH]c1=O)OCO3` (stereo not drawn): the IC50 is more than 100 µM.
